Test system: patient with hepatic encephalopathy
Experiment: Case report: patient with cryptogenic cirrhosis and hepatic encephalopathy treated with lactulose, then PEG 3350/lactulose
Type: in vivo, human
From the text: The patient is a person with cryptogenic cirrhosis, a type of cirrhosis which has unknown etiology. They have had extensive workups for chronic anemia in one of the major California hospitals and was placed on neomycin, Lasix, iron sulfate, lactulose, and Prevacid; they also were on a restricted protein diet to reduce ammonia production. They had intermittent episodes of hepatic encephalopathy during their hospitalization. The patient's hemoglobin slowly drops and they require transfusions periodically because of portal gastropathy. […] Although the therapeutic range is three to four bowel movements per day, it is very difficult for them to get to that range because of these effects.
The patient has required several hospitalizations for lethargy, declines in hemoglobin, and hepatic encephalopathy. They have intermittent episodes of abdominal discomfort and mild irritation of various small bowel loops.
The platelet count is in the range of 57,000. The lowest level of ammonia has been 30 micromoles/L and several levels have been 80 to 90 micromoles/L with the patient taking the lactulose.
The patient has had three hospitalizations for hepatic encephalopathy and anemia, mostly resulting from poor compliance. The patient's last hospitalization was July 22nd. Four months later, the patient presented us with hepatic encephalopathy and bedsores.
They were switched to 17 g MiraLax® (PEG 3350 powder) combined with 10 g of lactulose dissolved in water and given twice a day. The patient's ammonia level is now in the 70 to 75-range of micromoles/L and holding fairly steady on a maintenance dosage of this composition once per day.
They have achieved clinical and therapeutic levels of ammonia levels, and is oriented to time and place, with no clinical signs of hepatic encephalopathy on physical examination.

[1] = lactulose up to three to four times a day

OC[C@H]1O[C@@H](O[C@@H]2[C@@H](CO)OC(O)(CO)[C@H]2O)[C@H](O)[C@@H](O)[C@H]1O (mixture of isomers) [lactulose]
bowel movements per day [1]: three to four to five
side effects with the drug [1]: nausea, abdominal discomfort, and bloating sensation
lowest level of ammonia (patient taking the lactulose): 30 µmol/L

Reference: US7256202B2, “Composition and method for treatment of hepatic encephalopathy” (priority 2003, dated 2007)
